Experimental data: patent US11173165B2, “Optimizing mifepristone levels for Cushing's patients” (Corcept Therapeutics, Inc., priority 2015, dated 2021)

Assays:
[1] = system: patients with a diagnosis of Cushing's syndrome; experiment: Optimal response to mifepristone in Phase III open label study of Cushing's syndrome; format: in vivo, human; conditions: responders who completed the study
Protocol: This example provides an open label study of the safety and efficacy in the treatment of Cushing's syndrome. The study was a Phase III trial performed using several investigators at several different sites. […] The number of patients was 50. Patients eligible for randomization were male or nonpregnant female outpatients, and inpatients, if clinically required, with a diagnosis of Cushing's syndrome. Mifepristone was used as the test drug at 300 (1×300 mg tablet), 600 (2×300 mg tablet), 900 (3×300 mg tablet) and 1200 mg (4×300 mg tablet) once a day by mouth. Safety visits occurred at Days 21 and 35. If clinically necessary, a patient was treated as an inpatient. If early termination occurred prior to day 35, the patient returned for a safety follow up visit at day 35. The primary efficacy endpoint was the proportion of patients with at least a 25% reduction from baseline on a standard two hour oral glucose tolerance test or a […] in their diastolic blood pressure at study end (6 months). The secondary endpoints were: (1) the patient's global impression; and (2) reduction in previously used antihypertensive medication. The criteria for assessing study efficacy objective was the proportion of patients with at least a 25% reduction from baseline on a standard two hour oral glucose tolerance test or a […] in their diastolic blood pressure at study end (6 months).

[2] = in vivo; cited from earlier work
[3] = cited from earlier work
[4] = Mifepristone trough plasma level (MIFE-Ctrough) in Phase III open label study of Cushing's syndrome; format: in vivo, human; conditions: for MIFE-Ctrough, Mean / MIFE-Ctrough, Max / MIFE-Ctrough, Median / MIFE-Ctrough, Min: responders who completed the study
Protocol: Three (3) mL of blood was collected from a patient in a vacutainer containing sodium heparin. The blood was centrifuged and the resulting plasma frozen at −70 to −80° C. until assay. For analysis, the plasma samples were warmed and prepared as follows: • 1. Using a pipette, 50.0 μL of the sample was aliquoted into a 16×100-mm glass test tube. When a partial volume aliquot was needed, the aliquot was added to the tube and diluted to full volume with blank human plasma. • 2. 20.0 μL of the internal standard, mifepristone-d4 (5.00 μg/mL in acetonitrile), was added to the tube, resulting in 2000.0 ng/mL mifepristone-d4 in plasma. • 3. The tube was vortexed for approximately 1 minute. • 4. 50.0 μL of 6% ammonium hydroxide was added to the tube. • 5. The tube was vortexed for approximately 1 minute. • 6. 2.00 mL of MTBE was added to the tube. • 7. 2.00 mL of hexane was added to the tube. • 8. The tube was vortexed for at least 15 minutes. • 9. The tube was centrifuged for at least 10 minutes at 2500 RPM (575×g). • 10. The aqueous layer was frozen in a freezer set to maintain −70° C. • 11. […] The tube was vortexed for approximately 1 minute. • 15. The tube was sonicated for approximately 1 minute. • 16. The tube was vortexed for approximately 1 minute. • 17. The sample was transferred to a labeled injection vial or well plate. • 18. The vial or plate was capped and checked for air bubbles. The sample was then analyzed by reverse-phase high pressure liquid chromatography using a water:acetonitrile:formic acid (60:40:0.1) mobile phase (isocratic) at a flow rate of 0.3 mL/min. The column was a phenyl column maintained at 50° C. Mifepristone elutes at 4.2 minutes. Following elution, the mobile phase was nebulized using heated nitrogen in a Z-spray source/interface and the ionized compounds detected using a tandem quadrupole mass spectrometer. Mifepristone (molecular weight of 430 g/mol) was detected at m/z 372.30. The internal standard mifepristone-d4 was detected at m/z 376.30. The ratio of the mifepristone peak height to the mifepristone-d4 peak height was calculated. The plasma concentration of mifepristone was then calculated by comparing the experimental ratio to a standard curve of mifepristone:mifepristone-d4 peak height ratio v. mifepristone concentration. The standard curve was generated by first measuring the mifepristone:mifepristone-d4 peak height ratios for mifepristone samples at 10, 20, 50, 100, 200, 500, 1000 and 2000 ng/mL where the mifepristone-d4 internal standard has a concentration of 2000 ng/mL. The mifepristone:mifepristone-d4 peak height ratios of these known solutions were then fit to a power equation (Mass Lynx by Micromass, Beverly, Mass.), and the sample with unknown concentrations of mifepristone was compared. […]

[5] = molecular target: glucocorticoid receptor (GR) (Homo sapiens, UniProt P04150); conditions: cited from earlier work
Sequence of glucocorticoid receptor (GR) (P04150 whole entry): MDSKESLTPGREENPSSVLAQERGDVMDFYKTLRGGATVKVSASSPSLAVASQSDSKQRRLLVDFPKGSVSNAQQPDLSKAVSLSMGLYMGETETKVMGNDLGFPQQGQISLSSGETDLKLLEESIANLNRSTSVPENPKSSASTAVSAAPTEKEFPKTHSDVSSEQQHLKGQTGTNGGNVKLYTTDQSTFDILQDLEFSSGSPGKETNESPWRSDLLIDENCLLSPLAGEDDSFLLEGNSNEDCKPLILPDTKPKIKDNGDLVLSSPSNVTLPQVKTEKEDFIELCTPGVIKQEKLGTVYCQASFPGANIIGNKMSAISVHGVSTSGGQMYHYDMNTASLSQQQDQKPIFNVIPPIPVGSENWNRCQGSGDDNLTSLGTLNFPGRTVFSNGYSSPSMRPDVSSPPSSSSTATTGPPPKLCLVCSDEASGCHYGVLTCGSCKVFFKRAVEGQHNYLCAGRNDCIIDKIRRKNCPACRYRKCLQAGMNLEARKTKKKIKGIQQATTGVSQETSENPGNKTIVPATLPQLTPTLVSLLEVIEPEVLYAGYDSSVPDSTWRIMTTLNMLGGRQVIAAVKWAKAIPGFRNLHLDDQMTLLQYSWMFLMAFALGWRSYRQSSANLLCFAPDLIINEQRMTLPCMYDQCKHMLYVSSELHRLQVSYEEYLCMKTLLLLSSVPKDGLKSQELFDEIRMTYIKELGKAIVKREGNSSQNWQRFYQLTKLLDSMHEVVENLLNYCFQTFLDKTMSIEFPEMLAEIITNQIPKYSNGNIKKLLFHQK

[6] = at first response, including early terminators

What does the source list for `CC#C[C@]1(O)CC[C@H]2[C@@H]3CCC4=CC(=O)CCC4=C3[C@@H](c3ccc(N(C)C)cc3)C[C@@]21C` [mifepristone, 17-beta-hydroxy-11-beta-(4-dimethyl-aminophenyl)-17-alpha-(1-propynyl)-estra-4,9-dien-3-one]?
Cumulative Optimal Response (%) ([1]; dose 300): 20%; Optimal Response (%) ([1]; dose 300): 20%; Cumulative Optimal Response (%) ([1]; dose 600): 40%; Optimal Response (%) ([1]; dose 600): 20%; Cumulative Optimal Response (%) ([1]; dose 900): 60%; Optimal Response (%) ([1]; dose 900): 20%; Cumulative Optimal Response (%) ([1]; dose 1200): 100%; Optimal Response (%) ([1]; dose 1200): 40%; LD50 dose [2]: about 1000 mg/kg; blood serum level to be maintained ([3]; patients suffering from a mental disorder): about 1300 ng/mL; difference in blood serum levels from one patient to another ([3]; same dose, different patients): ≤ 800%; MIFE-Ctrough at Response, Max [4, 6]: 4210.00 ng/mL; MIFE-Ctrough at Response, Mean [4, 6]: 1968.68 ng/mL; MIFE-Ctrough at Response, Median [4, 6]: 1770.00 ng/mL; MIFE-Ctrough at Response, Min [4, 6]: 448.00 ng/mL; MIFE-ΔCtrough from Prior Dose, Max [4, 6]: 2017.00 ng/mL; MIFE-ΔCtrough from Prior Dose, Mean [4, 6]: 221.50 ng/mL; MIFE-ΔCtrough from Prior Dose, Median [4, 6]: 250.00 ng/mL; MIFE-ΔCtrough from Prior Dose, Min [4, 6]: -860.00 ng/mL; MIFE-Ctrough, Mean ([4]; dose 300 (mg once a day by mouth)): 1774.28 ng/mL; MIFE-Ctrough, Max ([4]; dose 300): 4130.00 ng/mL; MIFE-Ctrough, Median ([4]; dose 300): 1455.00 ng/mL; MIFE-Ctrough, Min ([4]; dose 300): 820.00 ng/mL; MIFE-Ctrough, Mean ([4]; dose 600 (mg once a day by mouth)): 1951.66 ng/mL; MIFE-Ctrough, Max ([4]; dose 600): 3850.00 ng/mL; MIFE-Ctrough, Median ([4]; dose 600): 1630.00 ng/mL; MIFE-Ctrough, Min ([4]; dose 600): 890.00 ng/mL; MIFE-Ctrough, Mean ([4]; dose 900 (mg once a day by mouth)): 2107.70 ng/mL; MIFE-Ctrough, Max ([4]; dose 900): 4230.00 ng/mL; MIFE-Ctrough, Median ([4]; dose 900): 1820.00 ng/mL; MIFE-Ctrough, Min ([4]; dose 900): 992.00 ng/mL; MIFE-Ctrough, Mean ([4]; dose 1200 (mg once a day by mouth)): 2292.86 ng/mL; MIFE-Ctrough, Max ([4]; dose 1200): 5440.00 ng/mL; MIFE-Ctrough, Median ([4]; dose 1200): 2022.50 ng/mL; MIFE-Ctrough, Min ([4]; dose 1200): 1060.00 ng/mL; blood serum level to be maintained for a therapeutic response ([4]; patients suffering from Cushing's syndrome): at least 1631 ng/mL; binding to the glucocorticoid receptor (GR) [5]: high affinity
